Data on one molecule can be found in ChEMBL document CHEMBL6071181, “Discovery of ZLC491 as a Potent, Selective, and Orally Bioavailable CDK12/13 PROTAC Degrader” (J Med Chem, 2024).

Active and inactive are the calls of the source. The rule behind the calls is not given here.

For data set [1], the system named is MDA-MB-231. Kind of data set: Downregulation of FANCD2 mRNA expression in human MDA-MB-231 cells incubated for 12 hrs by RT-qPCR analysis. The class given is functional, cell-based. Particulars: dose 60-300 nM. A general note: Real-time PCR tracks product formation cycle by cycle.
Data set [2] deals with T1, Protein cereblon/Cyclin-dependent kinase 13 (Homo sapiens) (UniProt Q14004+Q96SW2). Kind of data set: PROTAC activity at CRBN/CDK13 in human MDA-MB-231 cells assessed as induction of CDK13 degradation at 1 uM pretreated with 3-benzyl-1-((1r,4r)-4-((5-cyanopyridin-2-yl)amino)cyclohexyl)-1-(4-(piperazin-1-yl)phenyl)urea followed by compound addition and measured after 10 hrs by immunoblotting analysis. In kind it is cell-based.
T1 sequence (Q14004 whole entry, looked up): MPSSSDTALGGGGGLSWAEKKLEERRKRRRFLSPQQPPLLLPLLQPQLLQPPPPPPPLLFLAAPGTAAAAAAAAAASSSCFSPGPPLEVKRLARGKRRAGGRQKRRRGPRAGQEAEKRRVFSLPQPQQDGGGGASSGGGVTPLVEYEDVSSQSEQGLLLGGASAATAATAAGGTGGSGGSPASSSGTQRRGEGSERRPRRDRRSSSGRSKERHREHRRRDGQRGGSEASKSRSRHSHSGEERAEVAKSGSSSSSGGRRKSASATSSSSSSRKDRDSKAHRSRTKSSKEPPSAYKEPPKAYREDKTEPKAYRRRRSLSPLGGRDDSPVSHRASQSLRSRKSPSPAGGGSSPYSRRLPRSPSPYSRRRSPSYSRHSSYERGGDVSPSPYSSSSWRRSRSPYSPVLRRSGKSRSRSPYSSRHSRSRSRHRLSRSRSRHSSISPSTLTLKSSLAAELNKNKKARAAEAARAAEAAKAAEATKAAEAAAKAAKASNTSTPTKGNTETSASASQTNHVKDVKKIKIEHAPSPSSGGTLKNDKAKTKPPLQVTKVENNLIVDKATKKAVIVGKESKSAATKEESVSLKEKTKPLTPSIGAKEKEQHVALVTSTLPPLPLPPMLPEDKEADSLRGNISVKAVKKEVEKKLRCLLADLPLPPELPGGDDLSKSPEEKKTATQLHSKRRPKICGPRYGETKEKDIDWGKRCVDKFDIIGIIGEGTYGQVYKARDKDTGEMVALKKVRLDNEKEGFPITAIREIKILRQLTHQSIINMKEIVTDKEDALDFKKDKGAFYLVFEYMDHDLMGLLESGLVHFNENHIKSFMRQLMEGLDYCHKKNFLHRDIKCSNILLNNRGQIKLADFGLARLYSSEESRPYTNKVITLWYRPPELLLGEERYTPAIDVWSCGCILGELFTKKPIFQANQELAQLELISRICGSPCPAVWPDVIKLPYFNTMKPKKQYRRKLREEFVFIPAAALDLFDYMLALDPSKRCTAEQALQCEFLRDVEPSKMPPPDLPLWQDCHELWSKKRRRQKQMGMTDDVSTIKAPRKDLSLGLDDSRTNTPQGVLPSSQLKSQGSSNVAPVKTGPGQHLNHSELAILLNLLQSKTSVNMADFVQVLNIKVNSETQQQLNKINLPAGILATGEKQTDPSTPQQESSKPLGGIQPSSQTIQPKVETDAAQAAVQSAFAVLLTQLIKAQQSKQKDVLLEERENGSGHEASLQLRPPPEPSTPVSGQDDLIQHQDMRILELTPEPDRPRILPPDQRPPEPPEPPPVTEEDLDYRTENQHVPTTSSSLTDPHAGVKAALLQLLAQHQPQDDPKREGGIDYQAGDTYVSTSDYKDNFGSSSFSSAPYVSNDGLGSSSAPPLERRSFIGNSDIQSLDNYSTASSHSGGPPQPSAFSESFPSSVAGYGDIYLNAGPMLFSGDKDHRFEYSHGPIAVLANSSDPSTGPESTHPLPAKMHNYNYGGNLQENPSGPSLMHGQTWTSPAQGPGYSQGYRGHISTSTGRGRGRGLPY
T1 sequence (Q96SW2 whole entry, looked up): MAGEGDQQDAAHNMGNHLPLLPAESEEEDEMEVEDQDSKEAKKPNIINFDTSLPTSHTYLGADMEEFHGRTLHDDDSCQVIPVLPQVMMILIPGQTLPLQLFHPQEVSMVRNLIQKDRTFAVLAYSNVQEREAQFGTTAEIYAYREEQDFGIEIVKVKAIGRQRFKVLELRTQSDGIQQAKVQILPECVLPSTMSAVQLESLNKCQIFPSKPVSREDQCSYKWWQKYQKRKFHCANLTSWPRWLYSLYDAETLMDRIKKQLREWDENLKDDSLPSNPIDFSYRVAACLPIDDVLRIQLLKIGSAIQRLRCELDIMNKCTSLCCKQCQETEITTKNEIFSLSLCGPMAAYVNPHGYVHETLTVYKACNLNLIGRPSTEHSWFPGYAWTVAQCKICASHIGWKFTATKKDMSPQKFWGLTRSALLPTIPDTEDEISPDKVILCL

Data set [3] can be described thus: Antiproliferative activity against HEK293 cells assessed as inhibition of cell growth incubated for 5 days by CCK8 assay. Particulars: human. In kind it is toxicity, cell-based. Background: Tetrazolium dyes change colour on reduction, which living cells bring about.
In data set [4] the target is T1, Protein cereblon/Cyclin-dependent kinase 13 (Homo sapiens). Kind of data set: PROTAC activity at CRBN/CDK13 in human MDA-MB-436 cells assessed as induction of CDK13 degradation incubated for 15 hrs by immunoblotting analysis. In kind it is cell-based. The conditions noted are these: dose 0.01-3 µM.
Data set [5] concerns MDA-MB-231. Kind of data set: Antiproliferative activity against human MDA-MB-231 cells xenografted in female CB17SCID mouse model assessed as increase in TUNEL signaling in tumor at 200 mg/kg, po administered for 5 days by TUNEL staining based immunohistochemical analysis. In kind it is functional, organism-based. Particulars: time 5.0 day. In general terms: Xenograft models place foreign cells or tissue in a host animal.

In data set [6] the test system is MDA-MB-231. Kind of data set: Synergistic antiproliferative activity against human MDA-MB-231 cells assessed as combination index at 1.5 uM incubated for 5 days in presence of olaparib by CCK8 assay. The conditions noted are these: time 5 day. In kind it is functional.
Data set [7] addresses T1, Protein cereblon/Cyclin-dependent kinase 13 (Homo sapiens). Kind of data set: PROTAC activity at CRBN/CDK13 in human MDA-MB-231 cells assessed as induction of CDK13 degradation at 1 uM pretreated with MLN4924 followed by compound addition and measured after 10 hrs by immunoblotting analysis. The class given is cell-based.
In data set [8] the test system is MDA-MB-231. Kind of data set: Downregulation of BRCA2 mRNA expression in human MDA-MB-231 cells incubated for 12 hrs by RT-qPCR analysis. In kind it is functional, cell-based. The conditions noted are these: dose 60-300 nM.
Data set [9] deals with T1, Protein cereblon/Cyclin-dependent kinase 13 (Homo sapiens). Kind of data set: PROTAC activity at CRBN/CDK13 in human MDA-MB-231 cells assessed as induction of CDK13 degradation at 1 uM pretreated with MG132 followed by compound addition and measured after 10 hrs by immunoblotting analysis. In kind it is cell-based.
Data set [10] concerns MDA-MB-231. Kind of data set: Downregulation of BRCA1 protein level in human MDA-MB-231 cells at 0.1 to 0.5 uM incubated for 48 hrs by immunoblotting analysis. The class given is functional, cell-based. The conditions noted are these: dose 0.1-0.5 µM.
For data set [11], the system named is MDA-MB-231. Kind of data set: Synergistic antiproliferative activity against human MDA-MB-231 cells assessed as combination index at 0.3 uM incubated for 5 days in presence of cisplatin by CCK8 assay. In kind it is functional. The conditions noted are these: time 5 day.
For data set [12], the target named is T2, Protein cereblon/Cyclin-dependent kinase 12 (Homo sapiens) (UniProt Q9NYV4+Q96SW2). Kind of data set: PROTAC activity at CRBN/CDK12 in human MDA-MB-231 cells assessed as induction of CDK12 degradation at 1 uM pretreated with MLN4924 followed by compound addition and measured after 10 hrs by immunoblotting analysis. In kind it is cell-based.
T2 sequence (Q96SW2 whole entry, looked up): as above
T2 sequence (Q9NYV4 whole entry, looked up): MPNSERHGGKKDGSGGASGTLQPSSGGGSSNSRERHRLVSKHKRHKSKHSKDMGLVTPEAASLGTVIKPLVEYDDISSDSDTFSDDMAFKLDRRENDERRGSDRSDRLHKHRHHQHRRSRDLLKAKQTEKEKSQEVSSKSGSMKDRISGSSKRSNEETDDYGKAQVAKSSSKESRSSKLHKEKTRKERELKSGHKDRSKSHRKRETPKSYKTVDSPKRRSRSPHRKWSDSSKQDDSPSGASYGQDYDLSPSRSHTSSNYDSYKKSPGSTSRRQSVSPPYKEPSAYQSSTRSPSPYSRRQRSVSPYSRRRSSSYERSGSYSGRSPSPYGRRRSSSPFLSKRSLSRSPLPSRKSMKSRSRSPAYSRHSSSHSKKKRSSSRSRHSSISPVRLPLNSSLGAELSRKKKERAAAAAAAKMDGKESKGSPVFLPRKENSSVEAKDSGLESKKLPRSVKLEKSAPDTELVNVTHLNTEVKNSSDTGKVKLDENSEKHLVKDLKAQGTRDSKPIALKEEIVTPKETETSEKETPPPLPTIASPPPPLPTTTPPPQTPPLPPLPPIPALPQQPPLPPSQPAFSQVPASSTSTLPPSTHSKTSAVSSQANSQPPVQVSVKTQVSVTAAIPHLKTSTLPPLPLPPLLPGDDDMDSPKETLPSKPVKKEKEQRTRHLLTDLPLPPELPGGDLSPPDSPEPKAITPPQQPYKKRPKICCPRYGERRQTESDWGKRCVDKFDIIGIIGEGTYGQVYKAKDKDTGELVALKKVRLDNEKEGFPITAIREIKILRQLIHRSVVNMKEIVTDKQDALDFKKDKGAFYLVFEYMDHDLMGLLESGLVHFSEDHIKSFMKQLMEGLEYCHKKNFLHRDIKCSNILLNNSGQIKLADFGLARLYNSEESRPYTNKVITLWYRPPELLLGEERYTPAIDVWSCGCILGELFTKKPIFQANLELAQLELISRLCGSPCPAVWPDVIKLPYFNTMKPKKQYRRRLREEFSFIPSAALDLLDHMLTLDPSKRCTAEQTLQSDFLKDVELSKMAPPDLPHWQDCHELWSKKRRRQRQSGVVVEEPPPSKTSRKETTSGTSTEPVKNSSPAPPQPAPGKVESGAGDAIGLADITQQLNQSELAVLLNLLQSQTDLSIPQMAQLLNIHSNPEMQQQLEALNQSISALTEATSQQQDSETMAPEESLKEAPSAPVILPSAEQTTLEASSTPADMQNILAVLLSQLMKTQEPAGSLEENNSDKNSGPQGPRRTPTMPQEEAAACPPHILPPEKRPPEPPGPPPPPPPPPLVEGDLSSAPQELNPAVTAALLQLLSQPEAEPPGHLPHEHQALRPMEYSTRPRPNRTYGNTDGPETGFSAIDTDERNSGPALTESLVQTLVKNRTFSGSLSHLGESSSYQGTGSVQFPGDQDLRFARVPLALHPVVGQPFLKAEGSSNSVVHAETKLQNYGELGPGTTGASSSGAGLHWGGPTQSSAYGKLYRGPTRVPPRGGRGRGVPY
The target in data set [13] is T2, Protein cereblon/Cyclin-dependent kinase 12 (Homo sapiens). Kind of data set: PROTAC activity at CRBN/CDK12 in human MDA-MB-231 cells assessed as induction of CDK12 degradation at 1 uM by immunoblotting analysis. The class given is cell-based. The conditions noted are these: time <= 24.0 hrs, TDE = time-dependent effect.
Data set [14] has the same target. Kind of data set: PROTAC activity at CRBN/CDK12 in human MDA-MB-231 cells assessed as induction of CDK12 degradation at 2 uM incubated for 8 hrs by global proteomic analysis. In kind it is cell-based.
The test system of data set [15] is MDA-MB-231. Kind of data set: Synergistic antiproliferative activity against human MDA-MB-231 cells assessed as combination index at 0.3 uM incubated for 5 days in presence of olaparib by CCK8 assay. The class given is functional. Particulars: time 5 day.

With `N#Cc1ccc(N[C@H]2CC[C@H](N(C(=O)NCc3ccccc3)c3ccc(N4CCN(C5CCN(c6cc7c(cc6F)C(=O)N(C6CCC(=O)NC6=O)C7=O)CC5)CC4)cc3)CC2)nc1` (stereo not given in full), the Activity result with MDA-MB-231 [1] is “Dose-Dependent Effect”; in data set [4] it was “Dose-Dependent Effect”; with MDA-MB-231 [8], “Dose-Dependent Effect”; in data set [13], “Tde”. The result in data set [2], in data set [7], in data set [9] and in data set [12] was inactive. Also, the IC50 at 5 days in data set [3] was greater than 10 µM. The result (in the data set on MDA-MB-231 [5]; with MDA-MB-231 [10]; in data set [14]) was Active. Moreover, the CI was 0.9 with MDA-MB-231 [6], greater than 1 in the data set on MDA-MB-231 [11] and greater than 1 in the data set with MDA-MB-231 [15].

As a reminder, the IC50 is the concentration at which inhibition is half-maximal.
